Literature values, collected in paper PMC11599114 (Viruses, 2024).
Read-outs that look alike come from different tables or passages of the source.

Legend:
[1] = tested on: SARS-CoV-2; set-up: method as in 3 sources; conditions: SARS-CoV-2 infection, Vero E6
[2] = tested on: SARS-CoV; conditions: for inhibition: 100 µM
[3] = tested on: HSV-1; conditions: HSV-1, Vero
[4] = tested on: HSV-2; conditions: HSV-2, Vero
[5] = tested on: HCoV-229E; conditions: Vero
[6] = tested on: HCoV-OC43; conditions: HCoV-OC43, Vero
[7] = tested on: SARS-CoV-2; conditions: SARS-CoV-2, Vero
[8] = tested on: HPIV-3; conditions: HPIV-3, Vero
[9] = tested on: SARS-CoV
[10] = tested on: A/Roma-ISS/02/08 H1N1; conditions: A/Roma-ISS/02/08 H1N1, MDCK
[11] = tested on: influenza A virus(H1N1); set-up: method as in 2 sources
[12] = tested on: influenza A virus(H3N2); set-up: method as in 2 sources
[13] = tested on: SARS coronavirus
[14] = tested on: HSV; set-up: method as in ref 35663971; conditions: Huh7, at 10 μM
[15] = tested on: SARS-CoV-2; set-up: method as in ref 35663971; conditions: SARS-CoV-2, Huh7, at 10 μM
[16] = tested on: Dengue virus 2(DENV2); set-up: method as in ref 35663971; conditions: DENV2, Huh7, at 10 μM
[17] = tested on: influenza B virus; set-up: method as in ref 35259078; conditions: FluB, MDCK
[18] = tested on: SARS-CoV-2 (HKU001a); set-up: method as in ref 35259078; conditions: Vero E6
[19] = tested on: SARS-CoV-2(Delta); set-up: method as in ref 35259078; conditions: Vero E6
[20] = tested on: human parainfluenza virus 3 (HPIV3); set-up: method as in ref 16973588; conditions: HPIV3 infection, HeLa
[21] = tested on: Hendra virus(HeV)
[22] = tested on: human parainfluenza virus 3 (HPIV3); set-up: method as in ref 16973588; conditions: HPIV3 fusion, HeLa
[23] = tested on: Hendra virus(HeV); remark: listed apart in the source
[24] = tested on: HCoV-229E
[25] = tested on: SARS-CoV-2; set-up: method as in 3 sources; conditions: SARS-CoV-2 S-mediated fusion
[26] = tested on: SARS-CoV; remark: listed apart in the source
[27] = tested on: SARS-CoV-2; set-up: method as in 3 sources; conditions: SARS-CoV-2 PsV, Huh-7
[28] = tested on: HCoV-NL63
[29] = tested on: MERS-CoV
[30] = tested on: A/Parma0/5/06 H3N2; conditions: A/Parma0/5/06 H3N2, MDCK

In the case of “DEDLEELERLYRKAEEVAKEAKDASRRGDDERAKEQMERAMRLFDQVFELAQELQEKQTDGNRQKATHLDKAVKEAADELYQRVR [DRAVPe00480]”, the IC50 [1] is listed as 0.035 µM.
In the case of EEQAKTFLDK [DRAVPe01627], the inhibition [2] is listed as 25%.
For “EEQAKTFLDKFNHEAEDLFYQSSGLGKGDFR [DRAVPe01632]”, the IC50 [2] is given as 0.1 µM.
In the case of “ELEEQVMHVLDQVSELAHELLHKLTGEELERAAYFNWWATEMMLELIKSDDEREIREIEEEARRILEHLEELARK [DRAVPe00481]”, the IC50 [1] is given as 0.0155 µM.
For FVPWFSKFlKRIL [DRAVPe00383], the IC90 [3] is listed as 10.5 µM, the IC90 [4] is listed as 7.99 µM and the IC90 [5] is listed as 50 µM. The IC90 [6] was 16.3 µM, the IC90 [7] was 12.9 µM and the IC90 [8] was over 50 µM.
In the case of FVPWFSKFlkRIL [DRAVPe00384], the IC90 [3] is listed as 12.7 µM, the IC90 [4] is listed as 12.5 µM and the IC90 [5] is listed as 50 µM. For the same substance, the IC90 [6] was 29.2 µM, the IC90 [7] was 25.3 µM and the IC90 [8] was over 50 µM.
In the case of GYFVQDDGEWKFTGSSYYY [DRAVPe01421], the IC50 [9] is listed as 4 µM.
In the case of KANEGLTWNSLKDK [DRAVPe01644], the EC50 [10] is listed as 0.001 ± 0.00015 µM.
For KFFRKKSVKK [DRAVPe01822], the EC50 ([11]; H1N1, MDCK) is given as 5.2 ± 0.9 µM and the EC50 ([12]; H3N2, MDCK) is given as 7.36 ± 1.2 µM.
In the case of KKKKYRNIRRPG [AVP1641], the Activity [13] is given as 45 µg/mL.
In the case of MGRFKRFRKKFKKLFKKLS [DRAVPe01948], the inhibition [14] is given as 50%, the inhibition [15] is given as 80% and the inhibition [16] is given as 50%.
In the case of NHEAEDLFY [DRAVPe01629], the inhibition [2] is listed as 30%.
In the case of RGAHIKGRWKSRCHRF [DRAVPe01802], the IC50 ([11]; A(H1N1), MDCK) is given as 3.9 µg/mL, the IC50 [17] is given as 7.1 µg/mL and the IC50 ([12]; A(H3N2), MDCK) is given as 1.6 µg/mL. For the same substance, the IC50 [18] was 2.9 µg/mL and the IC50 [19] was 3.9 µg/mL.
For “SIELNKAKSDLEESKEWIRRSNQKLDSI [DRAVPe01316]”, the IC50 [20] is given as over 10 µM, the IC50 [21] is given as over 1 µM and the IC50 [22] is given as over 10 µM. For the same substance, the IC50 [23] was over 10 µM.
For “SLDYINVTFLDLQDEMNRLQEAIKVLNQSYINLKDI [DRAVPe00419]”, the IC50 [24] is listed as 2.01 ± 0.698 µM, the IC50 [25] is listed as 0.0041 ± 0.001 µM and the IC50 [26] is listed as 0.25 µM. The IC50 [27] was 0.0828 ± 0.0221 µM, the IC50 [28] was 0.416 ± 0.228 µM and the IC50 [29] was 0.0052 µM.
In the case of TNGESTADWAKN [DRAVPe01645], the EC50 [30] is listed as 0.01 µM and the EC50 [10] is listed as 0.4 ± 2e-05 µM.
For “VALDPIDISIELNKAKSDLEESKEWIRR [DRAVPe01315]”, the IC50 [20] is listed as over 10 µM, the IC50 [21] is listed as over 1 µM and the IC50 [22] is listed as over 10 µM. The IC50 [23] was over 10 µM.
In the case of “VANDPIDISIELNKAKSDLEESKEWIRRSNQKLDSD [DRAVPe01314]”, the IC50 [20] is listed as 1.1 µM, the IC50 [21] is listed as over 1 µM and the IC50 [22] is listed as 0.75 µM. For the same substance, the IC50 [23] was over 10 µM.
